Assay results published in a melting point compilation (Tetko et al.; mined from patent text by program, amines drawn as free bases though some values may be those of a salt).

First: CCCS(=O)(=O)c1ccc(NS(=O)(=O)c2cccs2)c2[nH]c(C(=O)NCCSC(c3ccccc3)(c3ccccc3)c3ccccc3)cc12
Second: O=C(O)CCNC(=O)[C@H](Cc1ccc(-c2ccccc2)cc1)NCP(=O)(O)Oc1ccccc1
The melting point of the first is lower: 200 to 201 °C for the first, 222 to 223 °C for the second.

First: COC(=O)c1cc(OCc2ccc3ccccc3n2)no1
Second: O=C(O)c1cc(Cl)cc(OCc2ccccc2)c1
The melting point of the first is higher: 133 to 134 °C for the first, 127 to 129 °C for the second.

First: CN1CCCN(C(=O)c2ccc3n2Cc2ccccc2N(C(=O)c2ccc(C4CCCCC4)cc2)C3)CC1
Second: Cc1ccccc1CN1CCc2ccc(C(=O)CCC(=O)N3CCC(c4ccc(Cl)cc4)CC3)cc2CC1
The melting point of the first is higher: 133 to 136 °C for the first, 108 to 109 °C for the second.

First: N=C(N)c1ccc2ncn(CC(=O)N3CCC(Cc4ccccc4)CC3)c2c1
Second: CC(C)n1nc(-c2c(-c3ccccc3)nn3ccc(C(=O)N4CCCC4)cc23)ccc1=O
The melting point of the first is lower: 68 to 70 °C for the first, 189 to 190 °C for the second.

Compared with `CC(C)c1c(Cl)nc(NC=O)nc1Cl`, `O=C(O)c1ncc(Cl)nc1Cl` is higher in melting point: 95 to 96 °C for the first, 139 to 141 °C for the second.

Compared with `CNc1ccc(C#Cc2cncc(-c3nc(NC)nc4cc(OC)c(OC)cc34)c2)cn1`, `COc1cc(OC)c2c(=O)[nH]c(-c3ccc(OCCNC(C)C)c(-c4ccccc4)n3)nc2c1` is higher in melting point: 160 to 162 °C for the first, 179 to 180 °C for the second.

Compared with `Cn1c(=O)c2c(-c3nc(C4CC4)no3)ncn2c2cccnc21`, `CC(Cn1ccnc1)Cn1c(=O)c2ccc(Cl)cc2n(C)c1=O` (stereo not given) is lower in melting point: 266 to 269 °C for the first, 206 to 209 °C for the second.

First: CS(=O)(=O)c1ccc(Cc2ccc(CCNS(=O)(=O)c3ccc(Cl)cc3)c(CCC(=O)O)c2)cc1
Second: O=C(O)CCCc1ccc(CNC(=O)C2Cc3ccccc3N2S(=O)(=O)c2ccc(-c3cccc(C(F)(F)F)c3)cc2)cc1 (stereo not given)
The melting point of the first is higher: 105 to 107 °C for the first, 75 °C for the second.

`CC1=C(N2CCN(C(=O)Nc3ccc(Cl)cc3)CC2)C(=O)c2ccccc2C1=O` and `O=C(Nc1ccc(Cl)cc1)NS(=O)(=O)c1ccc2c(c1)OCCO2` cannot be ordered by melting point: 190 to 192 °C for the first, 191 °C for the second.

First: CCOC(=O)N1C(=O)NC(C)=C(C(=O)OC)C1c1cccc(Cl)c1Cl (stereo not given)
Second: CCOC(=O)N(c1cccc(C(F)(F)F)c1)c1ccccc1N=NC(NC(=O)CCl)(C(=O)OCC)C(=O)OCC
The melting point of the first is higher: 159 to 160 °C for the first, 76 to 79 °C for the second.

First: CC(=C(F)c1ccccc1)c1ccc2c(c1)C(C)(C)CCC2(C)C
Second: CCOC(=O)CN=C(c1ccccc1)c1cc(Cl)ccc1N
The melting point of the first is lower: 100 °C for the first, 130 to 135 °C for the second.

First: Cc1nc[nH]c1CSCCNC(=C[N+](=O)[O-])NN
Second: Cn1cc(C=CC(=O)NO)c([N+](=O)[O-])n1
The melting point of the first is lower: 142 °C for the first, 172 to 174 °C for the second.

First: CCCNC(=O)c1cc2c(nc(C)n2C)c2c1CCC(c1ccccc1)O2 (stereo not given)
Second: CCCCCCCCCc1nnc(C2=C(OC(C)=O)c3ccccc3S(=O)(=O)N2C)o1
The melting point of the first is higher: 273 °C for the first, 118 to 119 °C for the second.

Compared with `CC1(C)CC(=O)CCc2ccc(Br)cc21`, `O=C1Cc2cc(C(=O)O)ccc2N1` is higher in melting point: 67 to 68 °C for the first, greater than 300 °C for the second.

Compared with `CCc1cccc(NC(=O)c2nnn[nH]2)c1O`, `CC(=O)c1cc(Oc2ccc(NC(=O)Nc3ccccc3C(F)(F)F)cc2)ncn1` is lower in melting point: 185 to 187 °C for the first, 149 to 151 °C for the second.

Compared with `COc1ccc(C(=O)Nc2cc(NC(=O)c3cccc(OCC(=O)O)c3)ccc2C)cc1OC`, `COC(=O)C(C)(C)CCCOc1ccc(NC(=O)C(C)(C)CCCOc2cc(C)ccc2C)cc1` is lower in melting point: 206 to 207 °C for the first, 62 to 63 °C for the second.

First: O=C1Nc2ccccc2C(c2ccccc2)CC1Br (stereo not given)
Second: Cn1cc(C2=C(c3cn(CCCCl)c4ccccc34)C(=O)NC2=O)c2ccccc21
The melting point of the first is lower: 191 to 192 °C for the first, 254 to 256 °C for the second.

Compared with `CC#CCC(C)(C)C(=O)/C=C/[C@@H]1[C@H]2CC(=O)O[C@H]2C[C@H]1OC(=O)c1ccccc1`, `CC(C)OC(=O)C1=C2SCC(=CC(=O)Sc3ccccc3)N2CC1C` (stereo not given) is higher in melting point: 73 to 74 °C for the first, 153 to 154 °C for the second.

Compared with `CC(C)(C)OC(=O)n1c(=O)n(C2CC3CC(N4CCN(c5ccc(F)cc5)CC4)CC3C2)c2ccccc21` (stereo not given), `O=C1CCN(c2ccc(C(=O)O)cc2)CCN1` is higher in melting point: 244 to 245 °C for the first, 285 to 286 °C for the second.

Compared with `O=C(O)C(=O)CC(=O)c1cccn1Cc1ccc(F)c(F)c1`, `O=C(NC1CC1)c1ccc(F)c(F)c1` is lower in melting point: 145 to 148 °C for the first, 104 to 108 °C for the second.

Compared with `COc1cc(F)c(F)cc1OCCN`, `COc1cc2cc(C#N)sc2cc1OC` is higher in melting point: 44 to 46 °C for the first, 125 °C for the second.

Compared with `CN(C)CCOc1ccc(C=O)c(O)c1`, `CCOc1ccc(C=CCCCCC(=O)O)cc1` is lower in melting point: 82 to 83 °C for the first, 62 to 63 °C for the second.

First: CCCCCCC(=O)CC(C)=O
Second: CCCCCCCCOC(=O)c1nc(Cl)c(Cl)nc1N
The melting point of the first is higher: 105 to 106 °C for the first, 85 °C for the second.

Compared with `Nc1cc(=O)n(Cc2ccc3c(c2)OCO3)[nH]1`, `COc1ccc(CN2C(=O)C3CC(c4ccc(N)cc4)(C3)C2=O)cc1` is lower in melting point: 218 °C for the first, 147 to 148 °C for the second.

`Cc1c(C)c(N2CCN(c3c(C)c(C)c4c(c3C)CC(C)(C)O4)CC2)c(C)c2c1OC(C)(C)C2` and `Cc1c(C)c(N2CCN(c3ccc(S(C)(=O)=O)cc3)CC2)c(C)c2c1OC(C)(C)C2` fall in the same range of melting point: 256 to 260 °C for the first, 256 to 260 °C for the second.

First: COc1ccc2c(C3OC(=O)NC3=O)c(OC)ccc2c1 (stereo not given)
Second: COc1ccc(S(=O)(=O)N2C(=O)C(O[Si](C)(C)C)(c3ccccc3Cl)c3cc(Cl)c(OC)cc32)c(OC)c1 (stereo not given)
The melting point of the first is lower: 175 to 180 °C for the first, 217 to 219 °C for the second.

First: O=S(=O)(NCCCCl)c1ccc(Nc2ncnc3cc(Cl)ccc23)cc1
Second: Nc1ccc(S(=O)(=O)N2CCCC(c3ccc(Cl)cc3)=N2)cc1
The melting point of the first is lower: 168 to 171 °C for the first, 205 to 206 °C for the second.

First: CN[C@@]1(C)CCN(c2c(-c3cccc(F)c3)c(C)c(C#N)c3nc(C(=O)N(C)C)oc23)C1
Second: CCN(C)c1nc2sc3c(NCc4ccco4)ncnc3c2c2c1CCC(C)(C)C2
The melting point of the first is higher: 178 to 180 °C for the first, 116 to 118 °C for the second.

First: CC(C)c1nc(C(C)C)c(CSc2cccc(F)c2)c(-c2ccc(F)cc2)c1CO
Second: CC(C)(C)c1ccc(-c2nc(COc3cccc4cc(NS(=O)(=O)C(F)(F)F)ccc34)cs2)cc1
The melting point of the first is lower: 99 to 100 °C for the first, 174 to 175 °C for the second.

Compared with `C[Si](C)(C)c1ccc(-c2ccc(I)cc2F)c(F)c1F`, `Cc1c(F)cc(C(C)(C)C)c(O)c1-c1nc2cc(S(=O)(=O)C(F)(F)F)ccc2[nH]1` is higher in melting point: 76 °C for the first, 245 to 247 °C for the second.

First: CC(O)CN(CC(C)O)C1CC(C)(C)NC(C)(C)C1 (stereo not given)
Second: Cc1cc(C)n2nc(OC(=S)N(C)C)cc2n1
The melting point of the first is lower: 97 to 102 °C for the first, 216 to 217 °C for the second.

First: Cc1oc(-c2ccccc2)nc1CCc1ccc(COc2ccccc2CC(=O)O)cc1
Second: CN(Cc1ccc(NC(=O)C2CCS(=O)(=O)c3ccc(OCc4ccc(F)cc4)cc3C2)cc1)C1CCOCC1 (stereo not given)
The melting point of the first is lower: 130 to 131 °C for the first, 232 to 234 °C for the second.

Compared with `CCC1(NC(=O)CCl)COCOC1`, `CCC1(c2cc(NC(=O)c3c(OC)cccc3OC)no2)CCCCC1` is higher in melting point: 89 to 95 °C for the first, 179 to 181 °C for the second.

First: COc1ccc2c(c1)c(Cc1nc(-c3ccc(Br)cc3)cs1)c(C)n2Cc1ccc(Br)cc1
Second: COc1ccc2c(c1)c(Cc1cc(=O)n(C3CCCCCC3)[nH]1)c(C)n2C(=O)c1ccc(Cl)cc1
The melting point of the first is higher: 178 to 179 °C for the first, 145 to 148 °C for the second.

First: CNC(=O)Cc1cccc2c(=O)cc(C3=CCCCC3)oc12
Second: O=C(NC1CCC1)c1ccc(F)c2c1CC(N(CCCc1c[nH]c3ccc(F)cc13)C1CCC1)CO2 (stereo not given)
The melting point of the first is higher: 213 to 214 °C for the first, 135 °C for the second.

First: COc1ccc(S(=O)(=O)Nc2ccccc2NC(=S)c2ccc(F)cc2)cc1
Second: COc1ccc(C2(c3ccc(OC)cc3)C(c3ccccc3)C2(Cl)Cl)cc1 (stereo not given)
The melting point of the first is higher: 155 to 156 °C for the first, 124 to 125 °C for the second.

First: CNc1nnc(-c2ccccc2)c(=O)n1NC
Second: Cc1nccc(-c2ccccc2)c1/C=C/C=O
The melting point of the first is higher: 150 to 151 °C for the first, 98 to 99 °C for the second.

Compared with `CCOC(C#Cc1cc(OC)c(OC)c(OC)c1)OCC`, `COc1cc([N+](=O)[O-])c2nccc(C)c2c1OCCCCCc1ccco1` is lower in melting point: 62.5 to 63 °C for the first, 47 to 49 °C for the second.

First: CC(C)On1c(C2CCCCC2)nc2c(N)nc3ccccc3c21
Second: Nc1c2c(nc3ccccc13)CCCC2N1CCOCC1 (stereo not given)
The melting point of the first is lower: 175 to 178 °C for the first, 215 to 217 °C for the second.

First: Cc1cn(C)c2c1Nc1ccccc1NC2=O
Second: Cc1nn(-c2ccccn2)c2[nH]c3ccc(N(C)C)cc3c(=O)c12
The melting point of the first is higher: 184 °C for the first, 171 to 173 °C for the second.

First: O=S1(=O)N=C(n2ccnc2)Nc2ccc(C(F)(F)F)cc21
Second: CCOC(=O)c1cc2c3n(ccc-2n1)CC(C(F)(F)F)=N3
The melting point of the first is lower: 211 to 214 °C for the first, 230 to 231 °C for the second.

First: CCNc1ccc(-c2ccnc3c(C(=O)c4cccs4)cnn23)cc1
Second: Oc1ccc(-c2c[nH]c(-c3cccnc3)n2)cc1
The melting point of the first is lower: 130 to 132 °C for the first, 315 to 318 °C for the second.

First: COC1CC(NC(=O)C(F)(F)F)C(OCc2ccccc2)C(C)O1 (stereo not given)
Second: COc1cc(/C=C/C(=O)CC(=O)C2CC2)ccc1O
The melting point of the first is higher: 159 to 160 °C for the first, 74.5 to 79 °C for the second.

First: Cc1cccc(N2CC(c3cccc(-c4ccc(S(C)(=O)=O)cc4)c3)=CN2)n1
Second: c1cncc(-c2cc(Oc3ccc4cccnc4c3)ncn2)c1
The melting point of the first is lower: 95 to 97 °C for the first, 155 to 158 °C for the second.

First: CCOc1nc(Cl)ncc1F
Second: NC(=NO)c1nc(Cl)c(-c2c(F)cccc2Cl)c(Cl)c1Br
The melting point of the first is lower: 30 to 32 °C for the first, 132 °C for the second.

Compared with `CN1C(=O)N(c2nnc(C(C)(C)C)s2)C(=O)C1O` (stereo not given), `CCOC(=O)CCCCn1c(C)cn(N=Cc2cccnc2)c1=O` is lower in melting point: 163 to 164 °C for the first, 74 to 76 °C for the second.

First: Cc1c(N)c([N+](=O)[O-])cc(F)c1F
Second: CCNc1cc(C)nn1-c1c(Cl)cc(C(F)(F)F)cc1Cl
The melting point of the first is higher: 87.2 to 88 °C for the first, 74 to 75 °C for the second.

First: Cc1c(C)c2c(c(C)c1N)CC(C)(CN1CCC(c3ccncc3)CC1)O2 (stereo not given)
Second: Clc1ccc2ccc(/C=C/c3ccc(CN4CCc5cccc(CCc6nnn[nH]6)c54)cc3)nc2c1
The melting point of the first is higher: 126 to 128 °C for the first, 83 to 87 °C for the second.

Compared with `Oc1c(I)cc(-c2c3ccccc3cc3sc4ccccc4c23)cc1I`, `NS(=O)(=O)c1cc(NC(=O)c2cnn3c(C(F)(F)F)cc(-c4ccc(C(F)(F)F)cc4)nc23)c(Cl)s1` is higher in melting point: 213 to 214 °C for the first, 275 °C for the second.

First: Nc1ccc(Oc2ccc(O)cc2)cc1
Second: CCCC(NS(=O)(=O)c1ccc(Cl)cc1)C(=O)NN (stereo not given)
The melting point of the first is higher: 130 to 134 °C for the first, 120 °C for the second.
